24 compounds from US9670231B2, “Fused tricyclic amide compounds as multiple kinase inhibitors” (BEIGENE, LTD., priority 2013, dated 2017) can be followed below.

Each structure is given as a SMILES string.

Common to all, as to type: biochemical
One test has as its target B-Raf (V600E) (Homo sapiens (Human), UniProt P15056, V600E). Description: Raf IC50 assay, TR-FRET, B-Raf (V600E). The following applies: 0.1 mM ATP; read-out: IC50 BRAF-V600E. The method, then:
The enzyme was incubated with the compounds disclosed herein at room temperature for 60 minutes and the reactions were initiated by the addition of ATP and GST-MEK1. After reaction at room temperature for 60 minutes, an equal volume of stop/detection solution was added according to the manufacture's instruction (CisBio Bioassays). […] The IC50 for each compound was derived from fitting the dose-response % inhibition data to the four-parameter logistic model by Graphpad Prism software.

Another test concerns the target WT EGFR kinase domain (Homo sapiens (Human), UniProt P00533). Briefly: EGFR enzymatic assay, TR-FRET, WT EGFR. How it is done: (§1) Compounds disclosed herein were tested against WT EGFR kinase domain (aa.669-1210, Carna Biosciences, 08-115), EGFR T790M/L858R kinase domain (aa.669-1210, Carna Biosciences, 08-510) and EGFR L858R kinase domain (aa.669-1210, Carna Biosciences, 08-502) in assays based on time-resolved fluorescence-resonance energy transfer methodology. The assay was carried out in 384-well low volume black plate in a reaction mixture containing EGFR kinases, 20 LM for EGFR WT and T790M/L858R, and 125 LM for EGFR L858R), biotin-TK substrate and 0-5 LM compounds in buffer containing 50 mM HEPES pH7.5, 10 mM MgCl2, 1 mM EGTA, 0.01% Brij-35, 2.5 mM DTT, 0.1% BSA. The kinase was incubated with the compounds disclosed herein at room temperature for 120 minutes and the reaction was initiated by the addition of ATP and biotin-TK substrate. After reaction at room temperature for 30 minutes, an equal volume of stop/detection solution was added according to the manufacture's instruction (CisBio Bioassays). The stop/detection solution contained TK-Antibody-Cryptate and Streptavidin-XL665 in buffer containing 25 mM Tris pH7.4, 400 mM KF, 50 mM EDTA, 0.01% BSA, 0.01% Triton X-100. Plates were sealed and incubated at room temperature for 1 hour, and the TR-FRET signals were read on BMG PHERAstar FS instrument. The IC50 of an inhibitor was derived from fitting the % inhibition data at each compound concentration to the four-parameter logistic equation by Graphpad Prism software.

A further test concerns the target EGFR L858R kinase domain (Homo sapiens (Human), UniProt P00533, L858R). Description: EGFR enzymatic assay, TR-FRET, EGFR L858R. The method, then: as §1
For test [1], the target named is EGFR T790M/L858R kinase domain (Homo sapiens (Human), UniProt P00533, L858R/T790M). Description: EGFR enzymatic assay, TR-FRET, EGFR T790M/L858R. The method, then: as §1
EGFR T790M/L858R kinase domain, sequence (P00533 669-1210 T790M/L858R): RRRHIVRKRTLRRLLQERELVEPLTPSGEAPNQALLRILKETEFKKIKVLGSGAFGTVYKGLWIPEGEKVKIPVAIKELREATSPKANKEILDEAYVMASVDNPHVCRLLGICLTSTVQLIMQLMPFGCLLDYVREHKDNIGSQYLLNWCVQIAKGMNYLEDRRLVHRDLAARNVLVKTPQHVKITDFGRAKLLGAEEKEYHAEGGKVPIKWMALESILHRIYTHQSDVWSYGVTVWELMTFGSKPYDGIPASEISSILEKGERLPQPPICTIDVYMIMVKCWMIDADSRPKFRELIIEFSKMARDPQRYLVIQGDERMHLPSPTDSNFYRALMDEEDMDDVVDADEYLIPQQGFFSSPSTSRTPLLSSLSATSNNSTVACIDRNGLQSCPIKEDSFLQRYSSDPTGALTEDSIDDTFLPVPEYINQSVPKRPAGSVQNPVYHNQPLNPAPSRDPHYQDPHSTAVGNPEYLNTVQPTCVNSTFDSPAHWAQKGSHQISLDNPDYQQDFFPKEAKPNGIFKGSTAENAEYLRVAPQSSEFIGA

WT EGFR kinase domain, sequence (P00533 669-1210): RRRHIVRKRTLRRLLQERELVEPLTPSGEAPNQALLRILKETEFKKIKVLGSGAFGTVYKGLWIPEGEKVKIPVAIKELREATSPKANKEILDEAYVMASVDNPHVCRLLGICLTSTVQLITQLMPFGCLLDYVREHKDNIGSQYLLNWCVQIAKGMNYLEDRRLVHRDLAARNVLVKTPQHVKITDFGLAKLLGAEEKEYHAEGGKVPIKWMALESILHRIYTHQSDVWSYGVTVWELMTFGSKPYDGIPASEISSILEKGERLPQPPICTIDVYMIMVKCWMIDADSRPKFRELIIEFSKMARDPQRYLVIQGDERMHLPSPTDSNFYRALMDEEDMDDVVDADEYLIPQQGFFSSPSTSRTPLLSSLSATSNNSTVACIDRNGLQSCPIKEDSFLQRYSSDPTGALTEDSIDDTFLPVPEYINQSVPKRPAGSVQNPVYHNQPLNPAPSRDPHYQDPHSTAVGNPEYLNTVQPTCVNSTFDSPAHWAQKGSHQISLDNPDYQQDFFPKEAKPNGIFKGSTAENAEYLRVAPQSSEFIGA
EGFR L858R kinase domain, sequence (P00533 669-1210 L858R): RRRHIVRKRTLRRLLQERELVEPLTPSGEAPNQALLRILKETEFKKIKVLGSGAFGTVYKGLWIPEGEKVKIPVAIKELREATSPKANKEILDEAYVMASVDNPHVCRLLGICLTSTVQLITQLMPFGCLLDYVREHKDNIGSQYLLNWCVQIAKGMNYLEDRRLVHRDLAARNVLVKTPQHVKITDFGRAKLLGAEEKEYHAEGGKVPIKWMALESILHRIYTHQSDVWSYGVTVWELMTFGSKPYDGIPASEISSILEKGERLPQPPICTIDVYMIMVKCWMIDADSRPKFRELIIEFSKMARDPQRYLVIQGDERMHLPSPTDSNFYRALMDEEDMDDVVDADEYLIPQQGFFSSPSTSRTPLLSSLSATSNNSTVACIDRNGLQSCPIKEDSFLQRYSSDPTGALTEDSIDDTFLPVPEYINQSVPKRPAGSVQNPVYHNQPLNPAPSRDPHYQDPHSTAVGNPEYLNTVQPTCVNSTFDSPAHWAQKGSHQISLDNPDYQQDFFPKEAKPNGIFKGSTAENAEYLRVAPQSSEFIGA
B-Raf (V600E), sequence (P15056 whole entry V600E): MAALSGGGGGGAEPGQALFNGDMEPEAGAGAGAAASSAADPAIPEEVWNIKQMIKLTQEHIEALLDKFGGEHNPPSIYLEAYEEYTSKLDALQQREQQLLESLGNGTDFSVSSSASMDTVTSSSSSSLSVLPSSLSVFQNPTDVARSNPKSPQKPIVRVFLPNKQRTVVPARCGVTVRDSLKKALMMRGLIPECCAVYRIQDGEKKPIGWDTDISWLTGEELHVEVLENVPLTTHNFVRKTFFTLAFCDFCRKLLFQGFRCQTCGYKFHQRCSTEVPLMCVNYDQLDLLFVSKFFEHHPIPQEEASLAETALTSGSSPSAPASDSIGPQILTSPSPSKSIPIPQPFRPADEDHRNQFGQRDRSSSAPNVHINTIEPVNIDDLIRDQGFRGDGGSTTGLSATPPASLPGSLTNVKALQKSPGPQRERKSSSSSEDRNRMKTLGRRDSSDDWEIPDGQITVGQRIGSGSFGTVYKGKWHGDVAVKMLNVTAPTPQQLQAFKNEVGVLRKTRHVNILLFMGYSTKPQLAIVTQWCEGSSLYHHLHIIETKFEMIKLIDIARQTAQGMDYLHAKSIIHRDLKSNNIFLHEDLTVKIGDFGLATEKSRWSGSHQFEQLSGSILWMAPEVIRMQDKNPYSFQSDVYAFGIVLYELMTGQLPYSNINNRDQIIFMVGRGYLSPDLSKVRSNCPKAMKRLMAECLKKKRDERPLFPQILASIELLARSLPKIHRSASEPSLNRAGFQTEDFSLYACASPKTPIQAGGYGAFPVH

Take `CCN1CCN(c2ccc(C(=O)N[C@@H]3[C@H]4Oc5ccc(Oc6ccnc7c6CCC(=O)N7)cc5[C@@H]34)cc2C(F)(F)F)CC1` [Compound 1.50]: the IC50 amounted to 11 nM at B-Raf (V600E), 6.3 nM at WT EGFR kinase domain, 7.1 nM on EGFR L858R kinase domain and 25 nM in test [1].

On to `CCN1CCN(Cc2ccc(C(=O)N[C@@H]3[C@H]4Oc5ccc(Oc6ccnc(N)c6)cc5[C@@H]34)cc2C(F)(F)F)CC1` [Compound 2.5, N-((1S,1aS,6bS)-5-((2-aminopyridin-4-yl)oxy)-1a,6b-dihydro-1H-cyclopropa[b]benzofuran-1-yl)-4-((4-ethylpiperazin-1-yl)methyl)-3-(trifluoromethyl)benzamide], for which the IC50 amounted to 58 nM at B-Raf (V600E), 4.1 nM at WT EGFR kinase domain, 0.47 nM at EGFR L858R kinase domain and 0.82 nM in test [1].

For the compound `CCCCCCCCCC(=O)N[C@@H]1[C@H]2Oc3ccc(Oc4ccnc5c4CCC(=O)N5)cc3[C@@H]12` [Compound 1.70], the IC50 amounted to 24 nM at B-Raf (V600E), 628 nM against WT EGFR kinase domain, 230 nM against EGFR L858R kinase domain and 1300 nM in test [1].

As to `CN1CCN(Cc2ccc(C(=O)N[C@@H]3[C@H]4Oc5ccc(Oc6ccnc7c6CCC(=O)N7)cc5[C@@H]34)cc2F)CC1` [Compound 1.21], the IC50 worked out at 8.8 nM on B-Raf (V600E), 1.3 nM on WT EGFR kinase domain, 0.28 nM against EGFR L858R kinase domain and 3 nM in test [1].

Turning to `CCCCCC(=O)N[C@@H]1[C@H]2Oc3ccc(Oc4ccnc5c4CCC(=O)N5)cc3[C@@H]12` [Compound 1.67], the IC50 on B-Raf (V600E) was found to be 0.6 nM; on WT EGFR kinase domain it was 385 nM; on EGFR L858R kinase domain, 182 nM; in test [1], 1410 nM.

For the compound `Cc1cc(Oc2ccnc3c2CCC(=O)N3)cc2c1OC1C(NC(=O)c3ccc(CN4CCN(C)CC4)c(C(F)(F)F)c3)C21` (stereo not shown) [Compound 1.56], the IC50 on B-Raf (V600E) is 21 nM; against WT EGFR kinase domain, 2.5 nM; on EGFR L858R kinase domain it was 0.4 nM; in test [1] it was 0.47 nM.

In the case of `COc1cc(C(=O)N[C@@H]2[C@H]3Oc4ccc(Oc5ccnc6c5CCC(=O)N6)cc4[C@@H]23)ccc1CN1CCN(C)CC1` [Compound 1.72], the IC50 amounted to 7.7 nM on B-Raf (V600E), 3 nM against WT EGFR kinase domain, 1 nM at EGFR L858R kinase domain and 32 nM in test [1].

Regarding `CCCCCCCC(=O)N[C@@H]1[C@H]2Oc3ccc(Oc4ccnc5c4CCC(=O)N5)cc3[C@@H]12` [Compound 1.69], the IC50 on B-Raf (V600E) came to 2 nM; against WT EGFR kinase domain, 118 nM; on EGFR L858R kinase domain, 116 nM; in test [1] it was 782 nM.

In the case of `CN1CCN(Cc2ccc(C(=O)N[C@H]3[C@@H]4Oc5ccc(Oc6ccnc7c6CCC(=O)N7)cc5[C@H]34)cc2C(F)(F)F)CC1` [Compound 1.34], the IC50 on B-Raf (V600E) is 11 nM; at WT EGFR kinase domain it was 254 nM; against EGFR L858R kinase domain it was 29 nM; in test [1] it was 119 nM.

For `O=C1CCc2c(Oc3ccc4c(c3)[C@H]3[C@H](NC(=O)c5ccnc(C(F)(F)F)c5)[C@H]3O4)ccnc2N1` [Compound 1.61], the concentration for half-maximal inhibition (IC50) at B-Raf (V600E) was 1.5 nM; against WT EGFR kinase domain, 132 nM; against EGFR L858R kinase domain, 76 nM; in test [1] it was 237 nM.

In the case of `CCN1CCC(Cc2ccc(C(=O)N[C@@H]3[C@H]4Oc5ccc(Oc6ccnc7c6CCC(=O)N7)cc5[C@@H]34)cc2C(F)(F)F)CC1` [Compound 1.74, 4-((1-ethylpiperidin-4-yl)methyl)-N-((1S,1aS,6bS)-5-((7-oxo-5,6,7,8-tetrahydro-1,8-naphthyridin-4-yl)oxy)-1a,6b-dihydro-1H-cyclopropa[b]benzofuran-1-yl)-3-(trifluoromethyl)benzamide], the IC50 on B-Raf (V600E) turned out to be 10 nM; against WT EGFR kinase domain it was 0.74 nM; against EGFR L858R kinase domain it was 0.17 nM; in test [1], 0.2 nM.

On to `CN(C)[C@@H]1CCCN(c2ccc(C(=O)N[C@@H]3[C@H]4Oc5ccc(Oc6ccnc7c6CCC(=O)N7)cc5[C@@H]34)cc2C(F)(F)F)C1` [Compound 1.48], for which the IC50 on B-Raf (V600E) amounted to 16 nM; on WT EGFR kinase domain it was 1.7 nM; against EGFR L858R kinase domain, 0.91 nM; in test [1] it was 5.3 nM.

For the compound `CCN1CCN(Cc2ccc(C(=O)N[C@@H]3[C@H]4Oc5ccc(Oc6ccnc7c6CCC(=O)N7)cc5[C@@H]34)cc2C)CC1` [Compound 1.57, 4-((4-ethylpiperazin-1-yl)methyl)-3-methyl-N-((1S,1aS,6bS)-5-((7-oxo-5,6,7,8-tetrahydro-1,8-naphthyridin-4-yl)oxy)-1a,6b-dihydro-1H-cyclopropa[b]benzofuran-1-yl)benzamide], the IC50 at B-Raf (V600E) worked out at 6.4 nM; at WT EGFR kinase domain it was 1.5 nM; at EGFR L858R kinase domain, 0.5 nM; in test [1] it was 3.1 nM.

As for `O=C1CCc2c(Oc3ccc4c(c3)[C@H]3[C@H](NC(=O)c5ccc(CO)c(C(F)(F)F)c5)[C@H]3O4)ccnc2N1` [Compound 1.76, 4-(hydroxymethyl)-N-((1S,1aS,6bS)-5-((7-oxo-5,6,7,8-tetrahydro-1,8-naphthyridin-4-yl)oxy)-1a,6b-dihydro-1H-cyclopropa[b]benzofuran-1-yl)-3-(trifluoromethyl)benzamide], the IC50 on B-Raf (V600E) was 3.7 nM; against WT EGFR kinase domain, 4.2 nM; against EGFR L858R kinase domain it was 18 nM; in test [1], 31 nM.

Consider `CCN1CCN(Cc2ccc(C(=O)N[C@@H]3[C@H]4Oc5ccc(Oc6ccnc7c6CNC(=O)N7)cc5[C@@H]34)cc2C(F)(F)F)CC1` [Compound 2.6, 4-((4-ethylpiperazin-1-yl)methyl)-N-((1S,1aS,6bS)-5-((2-oxo-1,2,3,4-tetrahydropyrido[2,3-d]pyrimidin-5-yl)oxy)-1a,6b-dihydro-1H-cyclopropa[b]benzofuran-1-yl)-3-(trifluoromethyl)benzamide], for which the IC50 on B-Raf (V600E) is 17 nM; against WT EGFR kinase domain, 0.43 nM; against EGFR L858R kinase domain, 0.085 nM; in test [1], 0.076 nM.

Regarding `CCCCCCCCCCCC(=O)N[C@@H]1[C@H]2Oc3ccc(Oc4ccnc5c4CCC(=O)N5)cc3[C@@H]12` [Compound 1.28], the values for the IC50 (at WT EGFR kinase domain; against EGFR L858R kinase domain; in test [1]) were 809 nM, 287 nM and 885 nM, respectively.

On to `CN1CCN(Cc2ccc(C(=O)N[C@@H]3[C@H]4Oc5ccc(Oc6ccnc7c6CCC(=O)N7)cc5[C@@H]34)cc2)CC1` [Compound 1.11], for which the IC50 on B-Raf (V600E) amounted to 5.9 nM; against WT EGFR kinase domain, 1.28 nM; against EGFR L858R kinase domain, 0.57 nM; in test [1], 18 nM.

For the compound `O=C1CCc2c(Oc3ccc4c(c3)[C@H]3[C@H](NC(=O)c5cncc(C(F)(F)F)c5)[C@H]3O4)ccnc2N1` [Compound 1.62], the IC50 turned out to be 1.3 nM at B-Raf (V600E), 42 nM at WT EGFR kinase domain, 28 nM on EGFR L858R kinase domain and 114 nM in test [1].

Consider `CCN1CCN(Cc2ccc(C(=O)N[C@@H]3[C@H]4Oc5ccc(Oc6ccnc7c6CCC(=O)N7)cc5[C@@H]34)cc2Cl)CC1` [Compound 1.18], for which the IC50 at B-Raf (V600E) worked out at 5.7 nM.

Turning to `CCN1CCN(Cc2ccc(C(=O)N[C@@H]3[C@H]4Oc5ccc(Oc6ccnc7c6CCC(=O)N7)cc5[C@@H]34)cc2OC)CC1` [Compound 1.73], the IC50 stood at 6.9 nM at B-Raf (V600E), 1.8 nM at WT EGFR kinase domain, 0.91 nM at EGFR L858R kinase domain and 34 nM in test [1].

In the case of `CCN1CCN(Cc2ccc(C(=O)N[C@@H]3[C@H]4Oc5ccc(Oc6ccnc7c6CCC(=O)N7)cc5[C@@H]34)cc2Br)CC1` [Compound 1.19], the IC50 stood at 5.4 nM at B-Raf (V600E), 0.55 nM against WT EGFR kinase domain, 0.27 nM on EGFR L858R kinase domain and 1.1 nM in test [1].

As for `CN1C(C)(C)CC(Oc2ccc(C(=O)N[C@@H]3[C@H]4Oc5ccc(Oc6ccnc7c6CCC(=O)N7)cc5[C@@H]34)cc2C(F)(F)F)CC1(C)C` [Compound 1.77, N-((1S,1aS,6bS)-5-((7-oxo-5,6,7,8-tetrahydro-1,8-naphthyridin-4-yl)oxy)-1a,6b-dihydro-1H-cyclopropa[b]benzofuran-1-yl)-4-((1,2,2,6,6-pentamethylpiperidin-4-yl)oxy)-3-(trifluoromethyl)benzamide], the IC50 at B-Raf (V600E) was 13 nM.

For the compound `CCN1CCN(Cc2cc(F)cc(C(=O)N[C@@H]3[C@H]4Oc5ccc(Oc6ccnc7c6CCC(=O)N7)cc5[C@@H]34)c2)CC1` [Compound 1.6], the IC50 on B-Raf (V600E) was determined as 1.7 nM.

For the compound `C[C@@H]1CN(Cc2ccc(C(=O)N[C@@H]3[C@H]4Oc5ccc(Oc6ccnc7c6CCC(=O)N7)cc5[C@@H]34)cc2C(F)(F)F)CCN1` [Compound 1.30], the IC50 against WT EGFR kinase domain turned out to be 0.69 nM; on EGFR L858R kinase domain, 0.46 nM; in test [1], 2.7 nM.
